Experimental data taken from patent US20140357512A1, “HISTONE DEACETYLASE (HDAC) BIOMARKERS IN MULTIPLE MYELOMA” (priority 2013, published 2014).

System: human myeloma cell line MM.1S
Experiment: SILAC acetylated-lysine peptide profiling, HDAC inhibitor vs DMSO (light/heavy ratio)
Type: cell-based
Excerpt: An embodiment of the invention comprises utilizing the SILAC method in order to quantitate changes in protein expression between two or more populations of cells. The SILAC method is a technique based on mass spectrometry that detects differences in protein abundance among samples using non-radioactive isotopic labeling. The SILAC method is known in the art, and described in detail in Ong et al., “Stable Isotope Labeling by Amino Acids in Cell Culture, SILAC, as a Simple and Accurate Approach to Expression Proteomics”, Molecular & Cellular Proteomics, vol. 1, pp. 376-386 (2002), which is incorporated herein by reference in its entirety.
Briefly, the SILAC method involves growing two populations of cells in cell culture. The first population of cells is grown in growth media containing normal amino acids (“normal media”). The second population of cells is grown in media lacking a standard essential amino acid (such as lysine), but is then supplemented with a non-radioactive, isotopically labeled form of that essential amino acid (such as lysine labeled with ^13C atoms, rather than normal ^12C atoms), which is called “heavy media”. When the two populations of cells are each growing in the medium, they incorporate the amino acids into all of their proteins. The growth of cells maintained in the heavy media is no different from that in normal media. All peptides containing the heavy amino acids are heavier than their normal counterparts. The cells from each of the two populations of cells are lysed. The lysates from each of the two cell populations are then combined. The combined cell lysates are then analyzed by mass spectrometry. Pairs of chemically identical peptides of different stable isotope composition can be differentiated in a mass spectrometer due to their difference in mass. The ratio of peak intensities in the mass spectrum for such peptide pairs reflects the abundance ratio for the two proteins.
This example describes SILAC studies that were performed to compare the effects of three different HDAC inhibitors (Compound A, Compound B, and tubastatin A) to a control on a human multiple myeloma cell line. The HDAC inhibitors were also compared amongst themselves to determine differences in their effects.
A human myeloma cell line MM.1S was grown using either ^12C (light) or ^13C (heavy) lysine containing culture medium. The “heavy” cells were treated with DMSO as the control, and the “light” cells were treated with a single HDAC inhibitor at 37° C. for 6 hours. The heavy and light cells were lysed, and the lysates were mixed in 1:1 ratio and digested with the protease trypsin. The acetylated lysine containing peptides (due to the action of the HDAC inhibitor) in the digested peptide pool were captured by a non-specific anti-acetylated lysine antibody cocktail (the antibodies identify both light and heavy acetylated peptides), and subjected to mass spectrometry analysis in order to identify thousands of individual peptides.
Thousands of peptides were identified in pairs (^12C and ^13C) due to their known mass differences. The amino acid sequence and quantitative ratio (Light/Heavy) of a given peptide in two differentially treated cell lysates were then determined and annotated with their possible protein (gene) sources.
As stated above, three HDAC inhibitors (Compound A, Compound B, and Tubastatin A) were used. Thus, the SILAC method was performed three times, with a different HDAC inhibitor compared to a control each time. Accordingly, there are three pairs of quantitative data in the table below, i.e., Compound A:DMSO, Compound B:DMSO, and Tubastatin A:DMSO. A cut-off of 1.30 fold of change (increase or decrease) was then used to determine “changed” or “+” in the table, and any peptides with a fold of change less than 1.3 fold were determined to be “unchanged” or “0” in the table. Those peptides that were not identified were marked as “NA” in the table. […]

With `O=C(NO)c1cnc(NC2(c3cccc(F)c3)CCCCC2)nc1` [Compound B, 2-((1-(3-fluorophenyl)cyclohexyl)amino)-N-hydroxypyrimidine-5-carboxamide] the “L/H ratio of acetylated peptide PDPAK(ac)SAPAPK(ac)K (SEQ ID NO: 16)” value (HIST1H2BO [6:12], log 2 scale, drug vs DMSO) was 0.66, the “light to heavy ratio (L/H ratio) of acetylated peptide SLNLK(ac)HIK (SEQ ID NO: 607)” value (HLA-B associated transcript 1 [188], gene SNORD84, DDX39B, inhibitor:DMSO) was 0.00 log 2 and the “L/H ratio of acetylated peptide K(ac)[…] (SEQ ID NO: 42)” value (HMGB2 [30], log 2 scale, drug vs DMSO) was 0.00. For the same molecule, the “L/H ratio of acetylated peptide” value (HMVMQK(ac)LLR (SEQ ID NO: 438), Isoform 1 of Poly(U)-binding-splicing factor PUF60 [454], PUF60) was 0.71 log 2, the “L/H ratio of acetylated peptide RGEEGHDPK(ac)EPEQLR (SEQ ID NO: 43)” value (HNRNPA3 [29], log 2 scale, drug vs DMSO) was 0.00 and the “L/H ratio of acetylated peptide […](ac)WQSLK (SEQ ID NO: 44)” value (HNRNPM [83], log 2 scale, drug vs DMSO) was 0.00. The “L/H ratio of acetylated peptide AAEVLNK(ac)HSLSGRPLK (SEQ ID NO: 3)” value (HNRNPM [134], log 2 scale, drug vs DMSO) was −0.74, the “L/H ratio of acetylated peptide VK(ac)VLFVR (SEQ ID NO: 45)” value (HNRNPR [341], log 2 scale, drug vs DMSO) was 0.00 and the “L/H ratio of acetylated peptide […](ac)YSR (SEQ ID NO: 46)” value (HNRNPU [246], log 2 scale, drug vs DMSO) was 0.00. For the same molecule, the “L/H ratio of acetylated peptide TTWVTK(ac)HAAENPGK (SEQ ID NO: 47)” value (HNRNPU [497], log 2 scale, drug vs DMSO) was 0.00, the “L/H ratio of acetylated peptide NK(ac)EIFLR (SEQ ID NO: 52)” value (HSP90B1 [97], log 2 scale, drug vs DMSO) was 0.00 and the “L/H ratio of acetylated peptide […](ac)IR (SEQ ID NO: 49)” value (HSP90B1 [114], log 2 scale, drug vs DMSO) was 0.00. The “L/H ratio of acetylated peptide ETLQQHK(ac)LLK (SEQ ID NO: 50)” value (HSP90B1 [455], log 2 scale, drug vs DMSO) was 0.00, the “L/H ratio of acetylated peptide IADDK(ac)YNDTFWK (SEQ ID NO: 51)” value (HSP90B1 [479], log 2 scale, drug vs DMSO) was 0.00 and the “L/H ratio of acetylated peptide […](ac)R (SEQ ID NO: 54)” value (HSPA5 [96], log 2 scale, drug vs DMSO) was 0.00. For the same molecule, the “L/H ratio of acetylated peptide […](ac)R (SEQ ID NO: 55)” value (HSPA8 [71], log 2 scale, drug vs DMSO) was 0.00, the “L/H ratio of acetylated peptide” value (HSPEDPEK(ac)YSCFALFVK (SEQ ID NO: 432), Isoform 1 of DNA-dependent protein kinase catalytic subunit [700], PRKDC) was −0.41 log 2 and the “L/H ratio of acetylated peptide” value (HTENVAK(ac)[…] (SEQ ID NO: 384), Transcriptional repressor CTCF [436], CTCF) was −0.66 log 2. For the same molecule, the “light to heavy ratio (L/H ratio) of acetylated peptide […](ac)R (SEQ ID NO: 267)” value (Heat shock 70 kDa protein 1A/1B [71], HSPA1B, HSPA1A, drug:DMSO) was 0.00 log 2, the “light to heavy ratio (L/H ratio), log 2 scale, acetylated peptide TEMDWVLK(ac)[…] (SEQ ID NO: 797)” value (Heterogeneous nuclear ribonucleoprotein F [98], gene HNRNPF, drug:DMSO) was 0.00 and the “light to heavy ratio (L/H ratio) of acetylated peptide YEK(ac)DIAAYR (SEQ ID NO: 595)” value (High mobility group protein B2 [157], gene HMGB2, inhibitor:DMSO) was 0.00 log 2. For the same molecule, the “light to heavy ratio (L/H ratio), log 2 scale, acetylated peptide K(ac)AINK(ac)AQK (SEQ ID NO: 793)” value (Histone H2B type 1-M [17:21], gene HIST1H2BM, drug:DMSO) was 0.00, the “light to heavy ratio (L/H ratio) of acetylated peptide PEPAK(ac)SAPAPK(ac)K (SEQ ID NO: 309)” value (Histone H2B type 2-E [6:12], HIST2H2BE, drug:DMSO) was 0.00 log 2 and the “light to heavy ratio (L/H ratio) of acetylated peptide K(ac)STGGK(ac)APR (SEQ ID NO: 310)” value (Histone H3.2 [10:15], HIST2H3D, HIST2H3A, HIST2H3C, drug:DMSO) was 0.00 log 2. The “light to heavy ratio (L/H ratio) of acetylated peptide GK(ac)GGK(ac)GLGK (SEQ ID NO: 311)” value (Histone H4 [6:9], HIST2H4B, HIST1H4C and other H4 genes, drug:DMSO) was 0.00 log 2, the “light to heavy ratio (L/H ratio) of acetylated peptide GLGK(ac)GGAK(ac)R (SEQ ID NO: 312)” value (Histone H4 [13:17], HIST2H4B, HIST1H4C and other H4 genes, drug:DMSO) was 0.00 log 2 and the “light to heavy ratio (L/H ratio) of acetylated peptide GLGK(ac)GGAKR (SEQ ID NO: 313)” value (Histone H4 [13], HIST2H4B, HIST1H4C and other H4 genes, drug:DMSO) was 0.00 log 2. For the same molecule, the “light to heavy ratio (L/H ratio) of acetylated peptide DGLQNEK(ac)NIVSTPVK (SEQ ID NO: 268)” value (Hydroxymethylglutaryl-CoA lyase mitochondrial [48], HMGCL, drug:DMSO) was 0.00 log 2, the “light to heavy ratio (L/H ratio) of acetylated peptide K(ac)[…] (SEQ ID NO: 594)” value (Hydroxymethylglutaryl-CoA lyase mitochondrial [137], gene HMGCL, inhibitor:DMSO) was 0.00 log 2 and the “L/H ratio of acetylated peptide” value (IAVEAQNK(ac)YER (SEQ ID NO: 457), Nucleoprotein TPR [1081], TPR) was 0.63 log 2. The “L/H ratio of acetylated peptide” value (IDYGEYMDK(ac)NNVR (SEQ ID NO: 454), Single-stranded DNA-binding protein mitochondrial [122], SSBP1) was −0.52 log 2 and the “light to heavy ratio (L/H ratio) of acetylated peptide, log 2 scale” value (IGK(ac)[…] (SEQ ID NO: 236), Thioredoxin domain-containing protein 5 [244], TXNDC5, MUTED, MUTED-TXNDC5) was 0.00.
